The values that follow come from patent publication US9738604B2, “Ethynylbenzene derivatives” (Duke University, priority 2010, dated 2017).

≈ marks a conversion by molar mass, not a printed value. Read-outs that look alike come from different tables or passages of the source. Some results are limits rather than exact numbers.

Type in all cases: cell-based
For one assay, the system named is P. aeruginosa (PAO1). The experiment in a line: MIC, P. aeruginosa. The following applies: for MIC: Pseudomonas aeruginosa, read-out: MIC P. aeruginosa (PAO1).
In the next assay the test system is E. coli W3110RL. The assay can be described thus: microbe, parasite or virus in culture. The settings on record: for MIC: Escherichia coli, W3110RL, 22 h, read-out: MIC E. coli W3110RL; for MIC E. coli W3110RL: E. coli with lpxC of R. leguminosarum, 22 hours at 37° C., MTT.
A further assay has as its system E. coli W3110. The assay can be described thus: microbe, parasite or virus in culture. The settings on record: for MIC: Escherichia coli, W3110, 22 h, read-out: MIC E. coli W3110.
For another assay, the system named is E. coli W3110PA. The assay can be described thus: microbe, parasite or virus in culture. The following applies: for MIC: Escherichia coli, W3110PA, 22 h, read-out: MIC E. coli W3110PA; for MIC E. coli W3110PA: E. coli with lpxC of P. aeruginosa, 22 hours at 37° C., MTT.
Where [1] appears, read: P. aeruginosa PAO1, 22 hours at 37° C., MTT.

Regarding `O=C(NO)C(Cc1ccc2ccccc2c1)NS(=O)(=O)c1ccc2ccccc2c1` (stereo not drawn), the MIC with P. aeruginosa (PAO1) (setting [1]) is more than 100 µg/mL; with E. coli W3110RL it was more than 100 µg/mL; with E. coli W3110, 1 to 10 µg/mL (≈ 2.38 to 23.8 µM); with E. coli W3110PA it was more than 100 µg/mL.
Turning to `C[C@@H](O)[C@H](NC(=O)c1ccc(C#Cc2ccccc2)cc1)C(=O)NO`, the MIC with P. aeruginosa (PAO1) (setting [1]) is 1 to 10 µg/mL (≈ 2.96 to 29.6 µM); in the assay with E. coli W3110RL, more than 100 µg/mL; with E. coli W3110 it was less than 1 µg/mL; in the assay on E. coli W3110PA, less than 1 µg/mL.
For the compound `CCCc1cc(C2=N[C@@H](C(=O)NO)CO2)cc(OC)c1OC`, the MIC in the assay on E. coli W3110RL and in the assay with E. coli W3110PA was more than 100 µg/mL each time.
For the compound `C[C@@H](O)[C@H](NC(=O)c1ccc(C#CC#CCN(C)C)cc1)C(=O)NO` [CPD-007, 4-(5-(dimethylamino)penta-1,3-diynyl)-N-((2S,3R)-3-hydroxy-1-(hydroxyamino)-1-oxobutan-2-yl)benzamide], the MIC with P. aeruginosa (PAO1) (PAO1, 22 h) is 1 to 10 µg/mL (≈ 2.91 to 29.1 µM); in the assay on E. coli W3110RL, more than 100 µg/mL; in the assay with E. coli W3110 it was 1 to 10 µg/mL (≈ 2.91 to 29.1 µM); in the assay with E. coli W3110PA, 1 to 10 µg/mL (≈ 2.91 to 29.1 µM).
On to `C[C@@H](O)[C@H](NC(=O)c1ccc(C#CC#Cc2ccccc2)cc1)C(=O)NO` [CPD-009, N-((2S,3R)-3-hydroxy-1-(hydroxyamino)-1-oxobutan-2-yl)-4-(phenylbuta-1,3-diynyl)benzamide], for which the MIC was less than 1 µg/mL in the assay on P. aeruginosa (PAO1) (PAO1, 22 h); 1 to 10 µg/mL (≈ 2.76 to 27.6 µM) in the assay on E. coli W3110RL; less than 1 µg/mL in the assay on E. coli W3110; less than 1 µg/mL in the assay with E. coli W3110PA.
For the compound `Nc1ccc(C#CC#Cc2ccc(C(=O)N[C@@H](Cc3c[nH]cn3)C(=O)NO)cc2)cc1` [CPD-014, (2S)-2-({4′-[4′-(4′-aminophenyl)buta-1′,3′-diyn-1′-yl]phenyl}formamido)-N-hydroxy-3-(1′H-imidazol-4′-yl)propanamide], the “MIC P. aeruginosa (PAO1)” value with P. aeruginosa (PAO1) (setting [1]) was “B (1-10 μg/mL)”. In the assay on E. coli W3110RL, the “MIC E. coli W3110RL” value is on record as “E (>100 μg/mL)”. Further, the “MIC E. coli W3110” value in the assay on E. coli W3110 is recorded as “A (key: A: <1 μg/mL; B: 1-10 μg/mL; C: 11-50 μg/mL; D: 51-100 μg/mL; E: >100 μg/mL)”. The “MIC E. coli W3110PA” value against E. coli W3110PA is listed as “B (1-10 μg/mL)”.
On to `Nc1cccc(C#CC#Cc2ccc(C(=O)N[C@@H](Cc3c[nH]cn3)C(=O)NO)cc2)c1` [CPD-015, (2S)-2-({4′-[4′-(3′-aminophenyl)buta-1′,3′-diyn-1′-yl]phenyl}formamido)-N-hydroxy-3-(1′H-imidazol-4′-yl)propanamide], for which the MIC is 1 to 10 µg/mL (≈ 2.42 to 24.2 µM) with P. aeruginosa (PAO1) (PAO1, 22 h); more than 100 µg/mL in the assay with E. coli W3110RL; less than 1 µg/mL in the assay on E. coli W3110; 51 to 100 µg/mL (≈ 123 to 242 µM) with E. coli W3110PA.
The corresponding values for `Nc1ccccc1C#CC#Cc1ccc(C(=O)N[C@@H](Cc2c[nH]cn2)C(=O)NO)cc1` [CPD-016, (2S)-2-({4′-[4′-(2′-aminophenyl)buta-1′,3′-diyn-1′-yl]phenyl}formamido)-N-hydroxy-3′-(1′H-imidazol-4′-yl)propanamide] are more than 100 µg/mL, more than 100 µg/mL, 1 to 10 µg/mL (≈ 2.42 to 24.2 µM) and 51 to 100 µg/mL (≈ 123 to 242 µM).
As to `CC(C)(C)OC(=O)CC[C@H](NC(=O)c1ccc(C#CC#Cc2ccc(N)cc2)cc1)C(=O)NO` [CPD-017, Tert-butyl (4S)-4-({4′-[4′-(4′-aminophenyl)buta-1′,3′-diyn-1′-yl]phenyl}formamido)-4-(hydroxycarbamoyl)butanoate], in the assay on P. aeruginosa (PAO1) (setting [1]), the “MIC P. aeruginosa (PAO1)” value is reported as “E (>100 μg/mL)”. In addition, the “MIC E. coli W3110RL” value in the assay on E. coli W3110RL was “E (>100 μg/mL)”. Also, the “MIC E. coli W3110” value against E. coli W3110 is reported as “C (key: A: <1 μg/mL; B: 1-10 μg/mL; C: 11-50 μg/mL; D: 51-100 μg/mL; E: >100 μg/mL)”. Besides, the “MIC E. coli W3110PA” value in the assay with E. coli W3110PA is recorded as “E (>100 μg/mL)”.
Take `Nc1ccc(C#CC#Cc2ccc(C(=O)N[C@@H](CCC(=O)O)C(=O)NO)cc2)cc1` [CPD-018, (4S)-4-({4′-[4′-(4′-aminophenyl)buta-1′,3′-diyn-1′-yl]phenyl}formamido)-4-(hydroxycarbamoyl)butanoic acid]: the “MIC P. aeruginosa (PAO1)” value against P. aeruginosa (PAO1) (setting [1]) is “C (11-50 μg/mL)”. The “MIC E. coli W3110RL” value in the assay on E. coli W3110RL is “E (>100 μg/mL)”. Besides, the “MIC E. coli W3110” value in the assay on E. coli W3110 (wild-type E. coli W3110, 22 hours at 37° C., MTT) is recorded as “B (1-10 μg/mL)”. Besides, in the assay with E. coli W3110PA, the “MIC E. coli W3110PA” value was “D (51-100 μg/mL)”.
Regarding `Nc1ccc(C#CC#Cc2ccc(C(=O)N[C@@H](CC(=O)O)C(=O)NO)cc2)cc1` [CPD-019, (3S)-3-({4′-[4′-(4′-aminophenyl)buta-1′,3′-diyn-1′-yl]phenyl}formamido)-3-(hydroxycarbamoyl)propane acid], the “MIC P. aeruginosa (PAO1)” value against P. aeruginosa (PAO1) (setting [1]) is given as “E (>100 μg/mL)”. For the same compound, the “MIC E. coli W3110RL” value with E. coli W3110RL is on record as “E (>100 μg/mL)”. The “MIC E. coli W3110” value against E. coli W3110 is given as “D (key: A: <1 μg/mL; B: 1-10 μg/mL; C: 11-50 μg/mL; D: 51-100 μg/mL; E: >100 μg/mL)”. For the same compound, the “MIC E. coli W3110PA” value in the assay on E. coli W3110PA is given as “E (>100 μg/mL)”.
`C[C@H](NC(=O)c1ccc(C#CC#Cc2ccc(N)cc2)cc1)C(=O)NO` [CPD-020, (2S)-2-({4′-[4′-(4′-aminophenyl)buta-1′,3′-diyn-1′-yl]phenyl}formamido)-N-hydroxypropanamide]: in the assay on P. aeruginosa (PAO1) (setting [1]), the “MIC P. aeruginosa (PAO1)” value is recorded as “C (11-50 μg/mL)”. Besides, the “MIC E. coli W3110RL” value against E. coli W3110RL is reported as “B (1-10 μg/mL)”. Besides, the “MIC E. coli W3110” value in the assay with E. coli W3110 is on record as “A (key: A: <1 μg/mL; B: 1-10 μg/mL; C: 11-50 μg/mL; D: 51-100 μg/mL; E: >100 μg/mL)”. For the same compound, the “MIC E. coli W3110PA” value in the assay on E. coli W3110PA is listed as “B (1-10 μg/mL)”.
As to `NC[C@H](NC(=O)c1ccc(C#CC#Cc2ccc(N)cc2)cc1)C(=O)NO` [CPD-021, (2S)-3-amino-2-({4′-[4′-(4′-aminophenyl)buta-1′,3′-diyn-1-yl]phenyl}formamido)-N-hydroxypropanamide], the “MIC P. aeruginosa (PAO1)” value in the assay on P. aeruginosa (PAO1) (setting [1]) was “B (1-10 μg/mL)”. In the assay on E. coli W3110RL, the “MIC E. coli W3110RL” value is “E (>100 μg/mL)”. The “MIC E. coli W3110” value with E. coli W3110 is recorded as “B (key: A: <1 μg/mL; B: 1-10 μg/mL; C: 11-50 μg/mL; D: 51-100 μg/mL; E: >100 μg/mL)”. Also, the “MIC E. coli W3110PA” value against E. coli W3110PA is listed as “C (11-50 μg/mL)”.
As for `C[C@@](O)(C(F)F)[C@H](NC(=O)c1ccc(C#Cc2ccc(CN3CCOCC3)cc2)cc1)C(=O)NO` [CPD-069, N-((2S,3S)-4,4-difluoro-3-hydroxy-1-(hydroxyamino)-3-methyl-1-oxobutan-2-yl)-4-((4-(morpholinomethyl)phenyl)ethynyl)benzamide], the MIC in the assay with P. aeruginosa (PAO1) (PAO1, 22 h) is 1 to 10 µg/mL (≈ 2.05 to 20.5 µM); in the assay with E. coli W3110, less than 1 µg/mL.
The corresponding values for `Nc1ccc(C#CC#Cc2ccc(C(=O)N[C@@H]3CN(O)C3=O)cc2)cc1` [CPD-071, (R)-4-((4-aminophenyl)buta-1,3-diynyl)-N-(1-hydroxy-2-oxoazetidin-3-yl)benzamide] are 51 to 100 µg/mL (≈ 148 to 290 µM) and 1 to 10 µg/mL (≈ 2.9 to 29 µM).
The corresponding values for `C[C@](O)(c1c[nH]nn1)C(NC(=O)c1ccc(C#CC#Cc2ccc(N)cc2)cc1)C(=O)NO` (stereo partly drawn) [CPD-072, 4-((4-aminophenyl)buta-1,3-diynyl)-N-((3R)-3-hydroxy-1-(hydroxyamino)-1-oxo-3-(1H-1,2,3-triazol-4-yl)butan-2-yl)benzamide] are less than 1 µg/mL and less than 1 µg/mL.
The corresponding values for `C[C@@](N)(C(F)F)C(NC(=O)c1ccc(C#CC#Cc2ccc(N)cc2)cc1)C(=O)NO` (stereo partly drawn) [CPD-079, N-((3S)-3-amino-4,4-difluoro-1-(hydroxyamino)-3-methyl-1-oxobutan-2-yl)-4-((4-aminophenyl)buta-1,3-diynyl)benzamide] are less than 1 µg/mL and less than 1 µg/mL.
In the case of `C[C@@](N)(C(F)F)[C@H](NC(=O)c1ccc(C#Cc2ccc(CN3CCOCC3)cc2)cc1)C(=O)NO` [CPD-080, N-((2S,3S)-3-amino-4,4-difluoro-1-(hydroxyamino)-3-methyl-1-oxobutan-2-yl)-4-((4-(morpholinomethyl)phenyl)ethynyl)benzamide], the MIC with P. aeruginosa (PAO1) (PAO1, 22 h) is less than 1 µg/mL; with E. coli W3110, less than 1 µg/mL.
